Where two headings read alike, the source gives them in different places.

Data on 5 compounds can be found in patent US10206907B2, “Compounds useful for the treatment of degenerative and inflammatory diseases” (GALAPAGOS NV, priority 2008, dated 2019).

Data set [1] has as its target Recombinant human JAK1 catalytic domain (Homo sapiens (Human), UniProt P23458). In words: JAK1 inhibition assay. It is filed as biochemical. Put shortly:
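Radiometric assay read by scintillation counting after phosphoric-acid washes. Percent inhibition calculated from cpm relative to vehicle and 10 μM staurosporine control. IC50 derived from compound dose-dilution series.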

In data set [2] the test system is MMP13 in SW1353 cells. Put plainly: OSM/IL-1β signaling assay (MMP13 levels in SW1353 cells).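 Also: secreted MMP13 captured by antibody, activated with APMA and its activity read by fluorescence, inhibition scaled between vehicle-treated triggered wells (0%) and untriggered wells (100%).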 It is filed as cell-based. To be noted: Homo sapiens; SW1353 cells, OSM and IL-1β triggered, MMP13 levels 48 hours after triggering; read-out: MMP13 EC50.
For data set [3], the system named is Collagen Induced Arthritis (CIA). In words: Rat CIA model. It is filed as in vivo. As to conditions: therapeutic dosing day 16 to day 30, p.o., statistical significance in several of the readouts. The method, then:
Completed Freund's adjuvant (CFA) and incomplete Freund's adjuvant (IFA) were purchased from Difco. Bovine collagen type II (CII), lipopolysaccharide (LPS), and Enbrel were obtained from Chondrex (Isle d'Abeau, France); Sigma (P4252, L'Isle d'Abeau, France), Whyett (25 mg injectable syringe, France) Acros Organics (Palo Alto, Calif.), respectively. All other reagents used were of reagent grade and all solvents were of analytical grade.
Dark Agouti rats (male, 7-8 weeks old) were obtained from Harlan Laboratories (Maison-Alfort, France). Rats were kept on a 12 hours light/dark cycle (0700-1900). The temperature was maintained at 22° C., and food and water were provided ad libitum.
One day before the experiment, CII solution (2 mg/mL) was prepared with 0.05 M acetic acid and stored at 4° C. Just before the immunization, equal volumes of adjuvant (IFA) and CII were mixed by a homogenizer in a pre-cooled glass bottle in an ice water bath. Extra adjuvant and prolonged homogenization might be required if an emulsion is not formed. 0.2 mL of the emulsion was injected intradermally at the base of the tail of each rat on day 1, a second booster intradermal injection (CII solution at 2 mg/mL in CFA 0.1 mL saline) was performed on day 9. This immunization method was modified from published methods (Sims N A et al., (2004) Targeting osteoclasts with zoledronic acid prevents bone destruction in collagen-induced arthritis, Arthritis Rheum. 50 2338-2346; Jou et al., 2005).
The therapeutic effects of the test compounds were tested in the rat CIA model. Rats were randomly divided into equal groups and each group contained 10 rats. All rats were immunized on day 1 and boosted on day 9. Therapeutic dosing lasted from day 16 to day 30. The negative control group was treated with vehicle (MC 0.5%) and the positive control group with Enbrel (10 mg/kg, 3× week, s.c.). A compound of interest was typically tested at 3 doses, e.g. 3, 10, 30 mg/kg, p.o.
Arthritis was scored according the method of Khachigian 2006, Lin et al 2007 and Nishida et al. 2004. The swelling of each of the four paws was ranked with the arthritic score as follows: 0-no symptoms; 1-mild, but definite redness and swelling of one type of joint such as the ankle or wrist, or apparent redness and swelling limited to individual digits, regardless of the number of affected digits; 2-moderate redness and swelling of two or more types of joints; 3-severe redness and swelling of the entire paw including digits; 4-maximally inflamed limb with involvement of multiple joints (maximum cumulative clinical arthritis score 16 per animal) (Nishida et al., 2004).
Clinically, body weight loss is associated with arthritis (Shelton et al., 2005; Argiles et al., 1998; Rall, 2004; Walsmith et al., 2004). […] The change in body weight (%) after onset of arthritis was calculated as follows: […]
X-ray photos were taken of the hind paws of each individual animal. A random blind identity number was assigned to each of the photos, and the severity of bone erosion was ranked by two independent scorers with the radiological Larsen's score system as follows: 0-normal with intact bony outlines and normal joint space; 1—slight abnormality with any one or two of the exterior metatarsal bones showing slight bone erosion; 2—definite early abnormality with any three to five of the exterior metatarsal bones showing bone erosion; 3—medium destructive abnormality with all the exterior metatarsal bones as well as any one or two of the interior metatarsal bones showing definite bone erosions; 4—severe destructive abnormality with all the metatarsal bones showing definite bone erosion and at least one of the inner metatarsal joints completely eroded leaving some bony joint outlines partly preserved; 5—mutilating abnormality without bony outlines. This scoring system is a modification from Salvcmini et al., 2001; Bush et al., 2002; Sims et al., 2004; Jou et al., 2005. […]

The nature of data set [4]: Microsomal stability, human liver microsomes. It is filed as in vitro ADME. As to conditions: percentage of compound remaining after 60 minutes, 3 μM compound. The procedure, abridged: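 Compound was incubated with liver microsomes plus an NADP+/glucose-6-phosphate/G6PDH/MgCl2 regenerating system at 37°C for 1 h. Reactions were stopped 1:1 with MeOH or ACN and analysed by LCMS.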

Recombinant human JAK1 catalytic domain, sequence (P23458 850-1154): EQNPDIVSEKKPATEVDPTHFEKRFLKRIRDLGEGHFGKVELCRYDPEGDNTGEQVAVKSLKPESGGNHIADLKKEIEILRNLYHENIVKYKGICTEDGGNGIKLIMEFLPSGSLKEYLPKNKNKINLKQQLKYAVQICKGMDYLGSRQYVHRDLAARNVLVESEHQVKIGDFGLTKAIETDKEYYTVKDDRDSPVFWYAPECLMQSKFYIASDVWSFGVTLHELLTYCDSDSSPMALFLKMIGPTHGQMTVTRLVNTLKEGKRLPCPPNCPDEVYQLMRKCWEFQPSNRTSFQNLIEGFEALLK

By IC50 is commonly meant the concentration that inhibits the measured activity by half. One may read the EC50 as the concentration needed to bring the measured effect to its halfway point. On to `CC1CCCN(C(=O)c2ccc(-c3cccc4nc(NC(=O)C5CC5)nn34)cc2)C1` (stereo not shown) [Compound 145, N-(5-(4-(3-methylpiperidine-1-carbonyl)phenyl)-[1,2,4]triazolo[1,5-a]pyridin-2-yl)cyclopropanecarboxamide], for which the IC50 in data set [1] (semi-quantitative score) is under 100 nM. For the same compound, the EC50 in data set [2] is over 1000 nM. In addition, in data set [3], the “efficacy in all readouts of the rat CIA study” value (from here on “efficacy in all readouts”) is reported as “efficacious in all readouts”. Besides, the “Microsomal Stability Human (%)” value in data set [4] was “*** (*** 51-75)”.

Turning to `O=C(Nc1nc2cccc(-c3ccc(CN4CCOCC4)cc3)n2n1)C1CC1` [Compound 18, N-(5-(4-(morpholinomethyl)phenyl)-[1,2,4]triazolo[1,5-a]pyridin-2-yl)cyclopropanecarboxamide], the EC50 in data set [2] is over 1000 nM. Besides, in data set [3], the “efficacy in all readouts” value is “efficacious in all readouts”. For the same compound, in data set [4], the “Microsomal Stability Human (%)” value was “**** (**** 76-100)”.

With `CC1CN(C(=O)c2ccc(-c3cccc4nc(NC(=O)C5CC5)nn34)cc2)CC(C)O1` (stereo not shown) [Compound 215, Cyclopropanecarboxylic acid {5-[4-(2,6-dimethyl-morpholine-4-carbonyl)-phenyl]-[1,2,4]triazolo[1,5-a]pyridin-2-yl}-amide], the IC50 in data set [1] (semi-quantitative score) is under 100 nM. Moreover, the EC50 in data set [2] is over 1000 nM. Further, the “efficacy in all readouts” value in data set [3] is “efficacious in all readouts”. Further, in data set [4], the “Microsomal Stability Human (%)” value was “**** (**** 76-100)”.

With `CC1(C)CN(C(=O)c2ccc(-c3cccc4nc(NC(=O)C5CC5)nn34)cc2)C1` [Compound 330, Cyclopropanecarboxylic acid (5-[4-(3,3-dimethyl-azetidine-1-carbonyl)-phenyl]-[1,2,4]triazolo[1,5-a]pyridin-2-yl}-amide], the IC50 in data set [1] (semi-quantitative score) is under 100 nM. Also, in data set [2], the EC50 lay in the range of 501 to 1000 nM. For the same compound, the “efficacy in all readouts” value in data set [3] is “efficacious in all readouts”. In addition, the “Microsomal Stability Human (%)” value in data set [4] is “**** (**** 76-100)”.

In the case of `N#Cc1ccc(COc2ccc(-c3cccc4nc(NC(=O)C5CC5)nn34)cc2)cn1` [Compound 176, N-(5-(4-((6-cyanopyridin-3-yl)methoxy)phenyl)-[1,2,4]triazolo[1,5-a]pyridin-2-yl)cyclopropanecarboxamide], the IC50 in data set [1] is under 100 nM. Moreover, the EC50 in data set [2] lay in the range of 1 to 500 nM. Moreover, the “efficacy in all readouts” value in data set [3] is listed as “efficacious in all readouts”. Moreover, the “Microsomal Stability Human (%)” value in data set [4] is recorded as “**** (**** 76-100)”.
